# Biological target: T1, Aromatase (Homo sapiens, UniProt P11511)
# T1 construct: host or cells: JEG3 choriocarcinoma cells (intact monolayers)
# T1 sequence (P11511 1-503): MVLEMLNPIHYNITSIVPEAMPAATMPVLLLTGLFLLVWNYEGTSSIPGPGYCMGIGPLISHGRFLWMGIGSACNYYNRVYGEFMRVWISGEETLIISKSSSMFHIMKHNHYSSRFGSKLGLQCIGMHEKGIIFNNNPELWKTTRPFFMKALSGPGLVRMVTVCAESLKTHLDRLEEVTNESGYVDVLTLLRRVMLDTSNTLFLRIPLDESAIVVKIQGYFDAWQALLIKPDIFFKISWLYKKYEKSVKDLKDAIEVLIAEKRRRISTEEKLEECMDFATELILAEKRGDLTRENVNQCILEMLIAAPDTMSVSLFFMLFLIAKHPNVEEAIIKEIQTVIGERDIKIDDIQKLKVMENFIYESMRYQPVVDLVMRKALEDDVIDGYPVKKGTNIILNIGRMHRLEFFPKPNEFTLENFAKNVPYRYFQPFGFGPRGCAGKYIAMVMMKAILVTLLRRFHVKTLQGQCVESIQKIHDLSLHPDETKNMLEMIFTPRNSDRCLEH
# Assay: Aromatase activity in JEG3 choriocarcinoma cells (Protocol 6)
# Assay type: cell-based
# Details: JEG3 cells
# Experimental: Aromatase activity is measured in JEG3 choriocarcinoma cells, obtained from the ATCC.
# During the aromatase reaction, ^3H2O is liberated which can be quantified using a liquid scintillation spectrometer (Beckman-Coulter, High Wycombe, Bucks. UK). […] The number of cell nuclei per flask is determined using a Coulter Counter after treating the cell monolayers with Z aponin.
# Unpaired Student's t test was used to test the statistical significance of results.
# A number of compounds were tested for aromatase and steroid sulphatase inhibition in accordance with the above Protocols 1 and 6.
row,Compound,IC50 [µM]
1,N#Cc1ccc(-c2cccc(Cn3cncn3)c2)cc1 [compound 1459],< 1
2,Clc1cc(-c2cccc(Cn3cncn3)c2)ccc1OCc1ccccc1 [compound 1502],< 10
3,N#Cc1ccc(-c2cccc(Cl)c2)cc1Cn1cncn1 [compound 1503],< 1
4,N#Cc1ccc(-c2ccc3ccccc3c2)cc1Cn1cncn1 [compound 1504],< 1
5,N#Cc1cccc(-c2ccc(C#N)c(Cn3cncn3)c2)c1 [compound 1505],< 10
6,CC(C)(C#N)c1cc(Cn2cncn2)cc(-c2ccccc2)c1 [compound 1506],< 1
7,CC(C)(C#N)c1cc(Cn2cncn2)cc(-c2cccc(Cl)c2)c1 [compound 1507],< 1
8,CC(C)(C#N)c1cc(Cn2cncn2)cc(-c2ccc3ccccc3c2)c1 [compound 1508],< 1
9,CC(C)(C#N)c1cc(Cn2cncn2)cc(-c2cccc(C#N)c2)c1 [compound 1509],< 1
10,N#Cc1ccc(-c2ccc(C#N)c(Cn3cncn3)c2)cc1 [compound 1510],< 1
11,O=C(c1ccccc1)c1cccc(-c2cccc(Cn3cncn3)c2)c1 [compound 1511],< 1
12,COc1ccc(-c2cccc(Cn3cncn3)c2)cc1Cl [compound 1512],< 1
13,Oc1ccc(-c2cccc(Cn3cncn3)c2)cc1Cl [compound 1519],< 1
14,N#Cc1ccc(-c2ccc(O)cc2)cc1Cn1cncn1 [compound 1520],< 1
15,CC(C)(C#N)c1cc(Cn2cncn2)cc(-c2ccc(O)cc2)c1 [compound 1521],< 1
16,Fc1cccc(-c2cccc(Cn3cncn3)c2)c1 [compound 1524],< 1
17,Fc1ccc(-c2cccc(Cn3cncn3)c2)cc1 [compound 1525],< 1
18,c1ccc(Oc2ccccc2-c2ccc(Cn3cncn3)cc2)cc1 [compound 1835],< 1
19,CC(=O)c1cccc(-c2cccc(Cn3cncn3)c2)c1 [compound 1838],< 1
20,c1cc(Cn2cncn2)cc(-c2cccc3c2oc2ccccc23)c1 [compound 1839],< 1
21,Oc1cccc(-c2cccc(Cn3cncn3)c2)c1 [compound 1840],< 1
22,Fc1ccc(-c2ccccc2)cc1Cn1cncn1 [compound 1841],< 1
23,Oc1ccc(-c2ccc(F)c(Cn3cncn3)c2)cc1 [compound 1842],< 1
24,N#Cc1ccc(-c2cccc(O)c2)cc1Cn1cncn1 [compound 1843],< 1
25,CC(C)(C#N)c1cc(Cn2cncn2)cc(-c2cccc(C(=O)c3ccccc3)c2)c1 [compound 1844],< 1
26,c1ccc(-c2ccc(Cn3cncn3)cc2)cc1 [compound 1975],< 10
27,N#Cc1ccc(Cn2cncn2)cc1-c1ccccc1 [compound 1978],< 1
28,COc1ccc2cc(-c3cccc(Cn4cncn4)c3)ccc2c1 [compound 1981],< 1
29,NS(=O)(=O)Oc1ccc2cc(-c3cccc(Cn4cncn4)c3)ccc2c1 [compound 2052],< 10
